# System: Penicillium Chrysogenom
# Test: Modified Agar plate method, fungicidal activity against Penicillium spores (number of colonies)
# Format: cell-based
# Conditions: Treatment II: 1 ml solution of Captan in water at 200 ppm
smiles,measurement,value
"O=C1C2CC=CCC2C(=O)N1SC(Cl)(Cl)Cl (stereo not shown) [CAPTAN, Captan]",inhibition (observation of number of colonies),total inhibition
